Laboratory results published in patent publication US20260209214A1, “LSD1 MODULATORS” (RECURSION PHARMACEUTICALS, INC., priority 2022, published 2026).

Molecular target: Recombinant human LSD1 (Homo sapiens, UniProt O60341)
Assay: LSD1 inhibition assay (HTRF LSD1 Histone H3K4 mono-demethylation assay, me1->me0)
Type: biochemical
Details: 20 nM recombinant human LSD1, 95 nM H3K4(me1) biotinylated peptide, 15 min preincubation, 60 min at 25° C., read-out: LSD1 inhibition IC50 (nM range)
Procedure: LSD1 biochemical activity was measured using the HTRF® LSD1 Histone H3K4 mono-demethylation assay (me1->me0). Briefly, the enzymatic buffer was prepared by addition of 50 mM Tris-HCl (Sigma cat #T2663-IL), 50 mM NaCl (ThermoFisher cat #AM9759) and 0.01% Tween 20 (ThermoFisher cat #J20605.AP) in distilled water (final pH 8.5). This buffer was supplemented with 10 μM FAD (Fisher Scientific cat #11411838) and 1 mM DTT (Sigma cat #D0632). For the assay, H3K4(me1) biotinylated peptide substrate (Anaspec, cat #64355) was added to provide a final assay concentration of 95 nM. The streptavidin-XL665 (Cisbio cat #610SAXLA) and H3K4 me0-Eu(K) antibody-cryptate (Cisbio, cat #61 KAOKAD) detection reagents were mixed according to the manufacturer's instructions. Test compounds were diluted in DMSO in a series of 10 semi-log step doses; 10 nL of each compound dose were dispensed in 384 well plates. Recombinant human LSD1 was diluted into enzymatic buffer to provide a final assay concentration of 20 nM and added to the tested compounds for 15 minutes. The reaction was started by addition of the substrate and incubated at 25° C. for 60 minutes. The detection reagents were added, and the plate was incubated in the dark for 90 minutes. Fluorescence was measured on an Envision 2103 plate reader with optical setup for […] in the HTRF mode. The ratio of acceptor and donor emission signals was calculated for each well. Percent inhibition values were calculated from the HTRF ratios at different doses and fitted to a 4-parameter logistic curve to determine IC50 values. […]

Row | Structure (SMILES) | IC50 [nM]
1 | N#Cc1ccc(-c2cccc(CN3[C@@H]4CC[C@H]3[C@@H](N)C4)c2OCC2CC2)cc1F (racemic) [Example 245, 3'-{[(1S,2S,4R)-2-amino-7-azabicyclo[2.2.1]heptan-7-yl]methyl}-2'-(cyclopropylmethoxy)-3-fluoro-[1,1'-biphenyl]-4-carbonitrile] | 25 to 100
2 | N#Cc1ccc(-c2cc(CN3[C@@H]4CC[C@H]3[C@@H](N)C4)ccc2CC2COC2)cc1F (racemic) [Example 246, 5'-{[(1S,2S,4R)-2-amino-7-azabicyclo[2.2.1]heptan-7-yl]methyl}-3-fluoro-2'-[(oxetan-3-yl)methyl]-[1,1'-biphenyl]-4-carbonitrile] | 100 to 1000
3 | CC1CC1c1c(CN2[C@@H]3CC[C@H]2[C@@H](N)C3)cccc1-c1ccc(C#N)c(F)c1 (mixture of isomers) [Example 247, 3'-{[(1S,2S,4R)-2-amino-7-azabicyclo[2.2.1]heptan-7-yl]methyl}-3-fluoro-2'-(2-methylcyclopropyl)-[1,1'-biphenyl]-4-carbonitrile] | 25 to 100
4 | N#Cc1ccc(-c2cccc(CN3[C@@H]4CC[C@H]3[C@@H](N)C4)c2C2=CCOCC2)cc1F (racemic) [Example 249, 3'-{[(1S,2S,4R)-2-amino-7-azabicyclo[2.2.1]heptan-7-yl]methyl}-2'-(3,6-dihydro-2H-pyran-4-yl)-3-fluoro-[1,1'-biphenyl]-4-carbonitrile] | 25 to 100
5 | CC(C)Oc1ccc(CN2[C@@H]3CC[C@H]2[C@@H](N)C3)cc1-c1ccc(C#N)c(F)c1 (racemic) [Example 250, 5'-{[(1S,2S,4R)-2-amino-7-azabicyclo[2.2.1]heptan-7-yl]methyl}-3-fluoro-2'-(propan-2-yloxy)-[1,1'-biphenyl]-4-carbonitrile] | 10 to 25
6 | N#Cc1ccc(-c2cc(CN3[C@@H]4CC[C@H]3[C@@H](N)C4)ccc2N2CC3(CC3)C2)cc1F (racemic) [Example 251, 5'-{[(1S,2S,4R)-2-amino-7-azabicyclo[2.2.1]heptan-7-yl]methyl}-2'-{5-azaspiro[2.3]hexan-5-yl}-3-fluoro-[1,1'-biphenyl]-4-carbonitrile] | 25 to 100
7 | N#Cc1ccc(-c2cc(CN3[C@@H]4CC[C@H]3[C@@H](N)C4)ccc2-c2ccsn2)cc1F (racemic) [Example 252, 5'-{[(1S,2S,4R)-2-amino-7-azabicyclo[2.2.1]heptan-7-yl]methyl}-3-fluoro-2'-(1,2-thiazol-3-yl)-[1,1'-biphenyl]-4-carbonitrile] | 25 to 100
8 | N#Cc1ccc(-c2cc(CN3[C@@H]4CC[C@H]3[C@@H](N)C4)ccc2-c2nccs2)cc1F (racemic) [Example 253, 5'-{[(1S,2S,4R)-2-amino-7-azabicyclo[2.2.1]heptan-7-yl]methyl}-3-fluoro-2'-(1,3-thiazol-2-yl)-[1,1'-biphenyl]-4-carbonitrile] | 25 to 100
9 | CN(CC1CC1)c1ccc(CN2[C@@H]3CC[C@H]2[C@@H](N)C3)cc1-c1ccc(C#N)c(F)c1 (racemic) [Example 254, 5'-{[(1S,2S,4R)-2-amino-7-azabicyclo[2.2.1]heptan-7-yl]methyl}-2'-[(cyclopropylmethyl)(methyl)amino]-3-fluoro-[1,1'-biphenyl]-4-carbonitrile] | 10 to 25
10 | N#Cc1ccc(-c2cc(CN3[C@@H]4CC[C@H]3[C@@H](N)C4)ccc2N2CCCCC2)cc1F (racemic) [Example 255, 5'-{[(1S,2S,4R)-2-amino-7-azabicyclo[2.2.1]heptan-7-yl]methyl}-3-fluoro-2'-(piperidin-1-yl)-[1,1'-biphenyl]-4-carbonitrile] | 10 to 25
11 | Cc1cccc(-c2ccc(CN3[C@@H]4CC[C@H]3[C@@H](N)C4)cc2-c2ccc(C#N)c(F)c2)n1 (racemic) [Example 256, 5'-{[(1S,2S,4R)-2-amino-7-azabicyclo[2.2.1]heptan-7-yl]methyl}-3-fluoro-2'-(6-methylpyridin-2-yl)-[1,1'-biphenyl]-4-carbonitrile] | 25 to 100
12 | Cc1cccnc1-c1ccc(CN2[C@@H]3CC[C@H]2[C@@H](N)C3)cc1-c1ccc(C#N)c(F)c1 (racemic) [Example 257, 5'-{[(1S,2S,4R)-2-amino-7-azabicyclo[2.2.1]heptan-7-yl]methyl}-3-fluoro-2'-(3-methylpyridin-2-yl)-[1,1'-biphenyl]-4-carbonitrile] | 10 to 25
13 | N#Cc1ccc(-c2cc(CN3[C@@H]4CC[C@H]3[C@@H](N)C4)ccc2-c2ccc(F)cn2)cc1F (racemic) [Example 258, 5'-{[(1S,2S,4R)-2-amino-7-azabicyclo[2.2.1]heptan-7-yl]methyl}-3-fluoro-2'-(5-fluoropyridin-2-yl)-[1,1'-biphenyl]-4-carbonitrile] | 25 to 100
14 | CC1CCN(c2ccc(CN3[C@@H]4CC[C@H]3[C@@H](N)C4)cc2-c2ccc(C#N)c(F)c2)CC1 (racemic) [Example 259, 5'-{[(1S,2S,4R)-2-amino-7-azabicyclo[2.2.1]heptan-7-yl]methyl}-3-fluoro-2'-(4-methylpiperidin-1-yl)-[1,1'-biphenyl]-4-carbonitrile] | 10 to 25
15 | COC1CCN(c2ccc(CN3[C@@H]4CC[C@H]3[C@@H](N)C4)cc2-c2ccc(C#N)c(F)c2)CC1 (racemic) [Example 260, 5'-{[(1S,2S,4R)-2-amino-7-azabicyclo[2.2.1]heptan-7-yl]methyl}-3-fluoro-2'-(4-methoxypiperidin-1-yl)-[1,1'-biphenyl]-4-carbonitrile] | 10 to 25
16 | N#Cc1ccc(-c2cc(Cl)cc(CN3[C@@H]4CC[C@H]3[C@@H](N)C4)c2-c2cncs2)cc1F (racemic) [Example 268, 3'-{[(1S,2S,4R)-2-amino-7-azabicyclo[2.2.1]heptan-7-yl]methyl}-5'-chloro-3-fluoro-2'-(1,3-thiazol-5-yl)-[1,1'-biphenyl]-4-carbonitrile] | 10 to 25
17 | CN(CC1CC1)c1c(CN2[C@@H]3CC[C@H]2[C@@H](N)C3)cccc1-c1ccc(C#N)c(F)c1 (racemic) [Example 269, 3'-{[(1S,2S,4R)-2-amino-7-azabicyclo[2.2.1]heptan-7-yl]methyl}-2'-[(cyclopropylmethyl)(methyl)amino]-3-fluoro-[1,1'-biphenyl]-4-carbonitrile] | 100 to 1000
18 | N#Cc1ccc(-c2cccc(CN3[C@@H]4CC[C@H]3[C@@H](N)C4)c2N2CCCC2)cc1F (racemic) [Example 270, 3'-{[(1S,2S,4R)-2-amino-7-azabicyclo[2.2.1]heptan-7-yl]methyl}-3-fluoro-2'-(pyrrolidin-1-yl)-[1,1'-biphenyl]-4-carbonitrile] | 100 to 1000
19 | N#Cc1ccc(-c2cccc(CN3CCC[C@H]4NCC[C@H]43)c2-c2cncs2)cc1F (racemic) [Example 279, 3'-{[(3aR,7aR)-otcahydro-1H-pyrrolo[3,2-b]pyridin-4-yl]methyl}-3-fluoro-2'-(1,3-thiazol-5-yl)-[1,1'-biphenyl]-4-carbonitrile] | 10 to 25
20 | N#Cc1ccc(-c2cccc(CN3[C@H]4CC[C@H](N)[C@@H]3CC4)c2Cl)cc1F (racemic) [Example 282, 3'-{[(1S,2S,5S)-2-amino-8-azabicyclo[3.2.1]octan-8-yl]methyl}-2'-chloro-3-fluoro-[1,1'-biphenyl]-4-carbonitrile] | 100 to 1000
21 | N#Cc1ccc(-c2cccc(CN3[C@@H]4CC[C@H]3[C@@H](N)C4)c2C(F)F)cc1F (racemic) [Example 301, 3'-{[(1S,2S,4R)-2-amino-7-azabicyclo[2.2.1]heptan-7-yl]methyl}-2'-(difluoromethyl)-3-fluoro-[1,1'-biphenyl]-4-carbonitrile] | 25 to 100
22 | N#Cc1ccc(-c2cccc(CN3[C@@H]4CC[C@H]3[C@@H](N)C4)c2C2=CCOC2)cc1F (racemic) [Example 303, 3'-{[(1S,2S,4R)-2-amino-7-azabicyclo[2.2.1]heptan-7-yl]methyl}-2'-(2,5-dihydrofuran-3-yl)-3-fluoro-[1,1'-biphenyl]-4-carbonitrile] | < 10
23 | Cc1cc(CN2[C@@H]3CC[C@H]2[C@@H](N)C3)c(C2CC2)c(-c2ccc(C#N)c(F)c2)c1 (racemic) [Example 304, 3'-{[(1S,2S,4R)-2-amino-7-azabicyclo[2.2.1]heptan-7-yl]methyl}-2'-cyclopropyl-3-fluoro-5'-methyl-[1,1'-biphenyl]-4-carbonitrile] | 10 to 25
24 | N#Cc1ccc(-c2cc(CN3[C@@H]4CC[C@H]3[C@@H](N)C4)ccc2Cl)cc1F (racemic) [Example 305, 5'-{[(1S,2S,4R)-2-amino-7-azabicyclo[2.2.1]heptan-7-yl]methyl}-2'-chloro-3-fluoro-[1,1'-biphenyl]-4-carbonitrile] | 25 to 100
